Results as given in US20040220188A1, “Alkylidene pyrazolidinedione derivatives” (priority 2001, published 2004).

What was measured:
GLEPP-1 = molecular target: T1, GLEPP-1 (Homo sapiens, UniProt Q16827); experiment: PTP Enzyme Assay (DiFMUP substrate), GLEPP-1; type: biochemical; conditions: catalytic core of human recombinant PTP, DiFMUP at Km; read-out: inhibition (IC50) with regard to GLEPP-1
T1 construct: using the catalytic core of a human recombinant PTP, as an enzyme; made in house
T1 sequence (Q16827 938-1195 limits assumed): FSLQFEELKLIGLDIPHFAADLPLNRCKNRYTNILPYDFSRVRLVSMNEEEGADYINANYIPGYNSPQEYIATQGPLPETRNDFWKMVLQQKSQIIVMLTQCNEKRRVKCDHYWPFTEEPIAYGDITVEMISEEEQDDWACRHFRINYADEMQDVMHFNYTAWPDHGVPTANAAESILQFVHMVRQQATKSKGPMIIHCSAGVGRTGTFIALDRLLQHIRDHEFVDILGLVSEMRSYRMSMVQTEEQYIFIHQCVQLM
Source text: (§1) (1) The PTP Enzyme Assay (In Vitro Assay)
(§2) The PTP Enzyme Assay aims at determining the extent of inhibition of the examined PTP (e.g. PTP1B, TC-PTP, PTP-β, DEP-1, LAR, SHP-1, SHP-2, GLEPP-1, PTP-κ, PTP-μ, VHR, hVH5) in the presence of a test compound. The inhibition is illustrated by IC50 values which denote the concentration necessary to achieve an inhibition of 50% of the given PTP.
(§3) The cloning and expression of the catalytic domain of PTPs (e.g. PTP1B, TC-PTP, PTP-β, DEP-1, LAR, SHP-1, SHP-2, GLEPP-1, PTP-κ, PTP-μ, VHR, hVH5) may be performed as described in J. Biol. Chem. 2000, 275(13), pp 9792-9796.
(§4) Assays were performed in a 96 well plate format, using the catalytic core of a human recombinant PTP, as an enzyme and 6,8-DiFluoro-4-MethylUmbelliferyl Phosphate (DiFMUP, Molecular Probes, D-6567) as a substrate at the Km value which was determined for each enzyme. Compounds to be tested were dissolved in 100% DMSO at a concentration of 2 mM. […] The reaction ran for 30 minutes at room temperature before reading the fluorescence intensity on a Perkin-Elmer Victor 2 spectrofluorimeter (excitation at 355 nm, emission at 460 nm, for 0.1 s). The percentage of inhibition relative to the fluorescence observed in the presence of solvent (5% DMSO) alone was determined. The IC50 values for inhibition were determined in triplicates on at least 3 separate occasions.

PTP1B = molecular target: T2, PTP1B (Homo sapiens, UniProt P18031); experiment: PTP Enzyme Assay (DiFMUP substrate), PTP1B; type: biochemical; conditions: catalytic core of human recombinant PTP, DiFMUP at Km; read-out: inhibition (IC50) with regard to PTP1B
T2 construct: using the catalytic core of a human recombinant PTP, as an enzyme; made in house
T2 sequence (P18031 3-277 limits assumed): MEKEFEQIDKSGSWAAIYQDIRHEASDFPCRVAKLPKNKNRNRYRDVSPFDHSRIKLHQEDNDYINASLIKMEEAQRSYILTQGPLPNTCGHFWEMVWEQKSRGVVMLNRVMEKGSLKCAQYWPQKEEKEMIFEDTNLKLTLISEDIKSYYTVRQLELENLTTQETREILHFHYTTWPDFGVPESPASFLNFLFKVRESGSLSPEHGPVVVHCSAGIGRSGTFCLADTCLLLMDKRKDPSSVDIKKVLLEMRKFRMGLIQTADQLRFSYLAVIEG
Source text: as §1, §2, §3, §4

SMILES	IC50 (GLEPP-1) [nM]	IC50 (PTP1B) [nM]
O=C1NN(c2ccc(I)cc2)C(=O)C1=Cc1ccc([N+](=O)[O-])o1 [Compound 45, 1-(4-Iodo-phenyl)-4-(5-nitro-furan-2-ylmethylene)-pyrazolidine-3,5-dione]	47	
O=C1NN(c2ccc(I)cc2)C(=O)C1=Cc1ccc(Br)o1 [Compound 25, 4-(5-Bromo-furan-2-ylmethylene)-1-(4-iodo-phenyl)-pyrazolidine-3,5-dione]	~130	40
O=C1NN(c2ccc(I)cc2)C(=O)C1=Cc1cc(Br)c(O)c2ncccc12 [Compound 35]		580
